Experimental data published in patent US20040202736A1, “Method of ameliorating side-effects of SERMs” (Pharmaton S.A., priority 2003, published 2004).
Entries after “also recorded” stand apart in the source; their conditions may differ.

Assays:
[1] = test system: vasomotor symptoms of patients treated with tamoxifen; experiment: Separate uncontrolled experiences to control vasomotor symptoms of patients treated with tamoxifen; type: in vivo, women; conditions: given to patients treated with tamoxifen
[2] = test system: invasive breast cancer; conditions: cited from earlier work
[3] = test system: breast cancer survivors women; experiment: Clinical practice: 1,600 breast cancer survivors treated with tamoxifen, adverse effects; type: in vivo
Text: The improvements in recurrence-free survival and in overall survival have been between the ranges reported by the published literature. However, into the total treated group, we have found only one case of endometrial cancer, well differentiated and of small size (table 2).
Many of these women had recently stopped HRT, at the time the diagnosis of breast cancer was made.

[4] = test system: hot flushes among breast cancer survivors under tamoxifen adjuvant therapy
[5] = usual-care n = 46 (six months), intervention n = 90 (end of study), tamoxifen 20 mg/day, BNO 1055 20 mg twice a day
[6] = usual-care n = 46, intervention n = 90

Compound: Vitamin E
- control of vasomotor symptoms / severe hot flushes [1]: very unsatisfactory results; also recorded: failed to reach a satisfactory control

Compound: Clc1cccc(Cl)c1N=C1NCCN1 [clonidine]
- control of vasomotor symptoms / severe hot flushes [1]: very unsatisfactory results; also recorded: failed to reach a satisfactory control

Compound: CC/C(=C(\c1ccccc1)c1ccc(OCCN(C)C)cc1)c1ccccc1 [Tamoxifen, Z-2-[4-(1,2-diphenyl-1-butenyl)phenoxy]-N,N-dimethyl-ethylamine]
- reduction of the risk of invasive breast cancer ([2]; 20 mg/day, 69 months of follow-up): 49%
- effect on ER-negative tumors ([2]; 20 mg/day): no effect
- incidence of adverse events, including endometrial cancer ([2]; women younger than 50): no increased incidence
- patients who reported hot flushes ([3]; postmenopausal patients, tamoxifen 20 mg/day): 25%
- patients who reported hot flushes ([3]; premenopausal women, mostly severe, tamoxifen 20 mg/day): up to 74%
- withdrawal ([3]; tamoxifen 20 mg/day): < 5%
- cases of endometrial cancer ([3]; total treated group (1,600), well differentiated and of small size): one
- decline of bimonthly reported numbers of hot flushes from baseline ([4]; baseline vs six months of tamoxifen adjuvant therapy, severe or moderate hot flushes, not significant, P=0.71): 5 to 9%
- minor adverse events, number ([4]; during the study): seven
- serious events ([4]; during the study): No serious events
- Hot Flushes Severe, number of patients [4, 5]: 34
- Hot Flushes Severe, proportion of patients [4, 5]: 73.9%
- Hot Flushes Moderate, number of patients [4, 6]: 12
- Hot Flushes Moderate, proportion of patients [4, 6]: 26.1%

Compound: CC(=O)[C@H]1CC[C@H]2[C@@H]3CCC4=CC(=O)CC[C@]4(C)[C@H]3CC[C@]12C [progesterone]
- control of vasomotor symptoms / severe hot flushes [1]: very unsatisfactory results; also recorded: failed to reach a satisfactory control
